We go through 26 compounds from publication PMC5641445 (Journal of medicinal chemistry, 2017).

SMILES strings stand for the structures. Structures can show the parent of a compound that is named as a salt.

Broadly, the IC50 is the concentration at which inhibition is half-maximal. Higher therefore signals lower potency.

Assay [1] addresses mouse PKA catalytic subunits (Mus musculus, UniProt P05132). The assay can be described thus: PKA inhibition, ADP-Glo Kinase Assay. For orientation: ADP-Glo first removes unused ATP, then detects ADP through luciferase.
A further assay deals with T1, bovine GRK2 (S670A) (Bos taurus, UniProt P21146, S670A).
T1 sequence (P21146 1-689 S670A): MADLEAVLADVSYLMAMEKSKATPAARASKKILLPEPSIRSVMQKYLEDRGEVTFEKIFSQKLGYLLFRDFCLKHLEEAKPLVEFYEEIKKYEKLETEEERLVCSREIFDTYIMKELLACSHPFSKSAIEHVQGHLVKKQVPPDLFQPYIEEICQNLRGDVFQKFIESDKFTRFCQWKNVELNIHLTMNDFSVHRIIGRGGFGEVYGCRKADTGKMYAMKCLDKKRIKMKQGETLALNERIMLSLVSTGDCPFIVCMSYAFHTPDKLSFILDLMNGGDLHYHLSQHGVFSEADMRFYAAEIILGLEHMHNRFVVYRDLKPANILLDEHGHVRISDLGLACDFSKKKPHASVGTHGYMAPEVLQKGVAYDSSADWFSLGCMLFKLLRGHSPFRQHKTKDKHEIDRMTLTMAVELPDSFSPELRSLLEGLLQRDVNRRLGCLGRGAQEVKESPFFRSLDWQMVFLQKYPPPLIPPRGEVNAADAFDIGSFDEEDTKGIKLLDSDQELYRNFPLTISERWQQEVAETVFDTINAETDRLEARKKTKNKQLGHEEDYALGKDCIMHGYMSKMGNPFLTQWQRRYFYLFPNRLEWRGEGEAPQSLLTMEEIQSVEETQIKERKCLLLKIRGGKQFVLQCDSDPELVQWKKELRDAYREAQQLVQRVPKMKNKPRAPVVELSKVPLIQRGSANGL
The assay can be described thus: GRK2 kinase inhibition.

Another assay concerns the target bovine GRK5 (Bos taurus, UniProt P43249). Briefly: GRK5 kinase inhibition.

bovine GRK5, sequence (P43249 whole entry): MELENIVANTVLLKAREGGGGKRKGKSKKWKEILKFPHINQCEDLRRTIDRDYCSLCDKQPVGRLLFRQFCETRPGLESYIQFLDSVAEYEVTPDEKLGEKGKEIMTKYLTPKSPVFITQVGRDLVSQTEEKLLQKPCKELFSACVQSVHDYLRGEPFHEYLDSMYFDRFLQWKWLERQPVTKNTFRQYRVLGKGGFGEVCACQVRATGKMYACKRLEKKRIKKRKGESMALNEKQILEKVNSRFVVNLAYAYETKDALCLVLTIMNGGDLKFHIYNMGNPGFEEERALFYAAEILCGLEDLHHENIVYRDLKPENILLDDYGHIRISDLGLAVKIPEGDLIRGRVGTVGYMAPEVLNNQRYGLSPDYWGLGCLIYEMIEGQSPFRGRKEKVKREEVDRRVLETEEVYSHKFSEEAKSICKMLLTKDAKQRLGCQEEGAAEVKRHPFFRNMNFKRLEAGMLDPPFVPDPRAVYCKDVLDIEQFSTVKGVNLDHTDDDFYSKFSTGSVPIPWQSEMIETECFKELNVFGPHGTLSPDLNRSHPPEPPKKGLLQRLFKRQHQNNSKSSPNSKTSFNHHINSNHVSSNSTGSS

The compound `CNC(=O)c1cc([C@@H]2CCNC[C@H]2COc2ccc3c(c2)OCO3)ccc1F` [14aa, 5-((3S,4R)-3-((benzo[d][1,3]dioxol-5-yloxy)methyl)piperidin-4-yl)-2-fluoro-N-methylbenzamide] yielded an IC50 in assay [1] of over 100 µM.
Turning to `O=C(NCc1ccccc1)c1cc([C@@H]2CCNC[C@H]2COc2ccc3c(c2)OCO3)ccc1F` [14ab, 5-((3S,4R)-3-((benzo[d][1,3]dioxol-5-yloxy)methyl)piperidin-4-yl)-N-benzyl-2-fluorobenzamide], in assay [1], the IC50 is over 100 µM.
As to `O=C(NCCc1ccccc1)c1cc([C@@H]2CCNC[C@H]2COc2ccc3c(c2)OCO3)ccc1F` [14ac, 5-((3S,4R)-3-((benzo[d][1,3]dioxol-5-yloxy)methyl)piperidin-4-yl)-2-fluoro-N-phenethylbenzamide], the IC50 in assay [1] is over 100 µM.
In turn, `O=C(NCc1c(F)cccc1F)c1cc([C@@H]2CCNC[C@H]2COc2ccc3c(c2)OCO3)ccc1F` [14ad, 5-((3S,4R)-3-((benzo[d][1,3]dioxol-5-yloxy)methyl)piperidin-4-yl)-N-(2,6-difluorobenzyl)-2-fluorobenzamide hydrochloride] registered an IC50 in assay [1] of over 100 µM.
On the same count and under the same terms, the value for `O=C(NCCc1c(F)cccc1F)c1cc([C@@H]2CCNC[C@H]2COc2ccc3c(c2)OCO3)ccc1F` [14ae, 5-((3S,4R)-3-((benzo[d][1,3]dioxol-5-yloxy)methyl)piperidin-4-yl)-N-(2,6-difluorophenethyl)-2-fluorobenzamide] was over 100 µM; that for `O=C(NCc1ccccc1C(F)(F)F)c1cc([C@@H]2CCNC[C@H]2COc2ccc3c(c2)OCO3)ccc1F` [14af, 5-((3S,4R)-3-((benzo[d][1,3]dioxol-5-yloxy)methyl)piperidin-4-yl)-2-fluoro-N-(2-(trifluoromethyl)benzyl)benzamide] was over 100 µM; that for `Cc1cccc(C)c1CNC(=O)c1cc([C@@H]2CCNC[C@H]2COc2ccc3c(c2)OCO3)ccc1F` [14ag, 5-((3S,4R)-3-((benzo[d][1,3]dioxol-5-yloxy)methyl)piperidin-4-yl)-N-(2,6-dimethylbenzyl)-2-fluorobenzamide hydrochloride] was over 100 µM.
In assay [1], `O=C(NCc1c(Cl)cccc1Cl)c1cc([C@@H]2CCNC[C@H]2COc2ccc3c(c2)OCO3)ccc1F` [14ah, 5-((3S,4R)-3-((benzo[d][1,3]dioxol-5-yloxy)methyl)piperidin-4-yl)-N-(2,6-dichlorobenzyl)-2-fluorobenzamide] displayed an IC50 of over 100 µM.
Still for that read-out and setting: for `COc1cccc(OC)c1CNC(=O)c1cc([C@@H]2CCNC[C@H]2COc2ccc3c(c2)OCO3)ccc1F` [14ai, 5-((3S,4R)-3-((benzo[d][1,3]dioxol-5-yloxy)methyl)piperidin-4-yl)-N-(2,6-dimethoxybenzyl)-2-fluorobenzamide hydrochloride] the value was over 100 µM; for `COc1ccccc1CNC(=O)c1cc([C@@H]2CCNC[C@H]2COc2ccc3c(c2)OCO3)ccc1F` [14aj, 5-((3S,4R)-3-((benzo[d][1,3]dioxol-5-yloxy)methyl)piperidin-4-yl)-2-fluoro-N-(2-methoxybenzyl)benzamide hydrochloride], over 100 µM.
In assay [1], `O=C(NCc1cccnc1)c1cc([C@@H]2CCNC[C@H]2COc2ccc3c(c2)OCO3)ccc1F` [14al, 5-((3S,4R)-3-((benzo[d][1,3]dioxol-5-yloxy)methyl)piperidin-4-yl)-2-fluoro-N-(pyridin-3-ylmethyl)benzamide] returned an IC50 of over 100 µM.
Same read-out and setting: the value for `O=C(NCc1ccncc1)c1cc([C@@H]2CCNC[C@H]2COc2ccc3c(c2)OCO3)ccc1F` [14am, 5-((3S,4R)-3-((benzo[d][1,3]dioxol-5-yloxy)methyl)piperidin-4-yl)-2-fluoro-N-(pyridin-4-ylmethyl)benzamide] was over 100 µM; that for `O=C(NCCc1ccccn1)c1cc([C@@H]2CCNC[C@H]2COc2ccc3c(c2)OCO3)ccc1F` [14an, 5-((3S,4R)-3-((benzo[d][1,3]dioxol-5-yloxy)methyl)piperidin-4-yl)-2-fluoro-N-(2-(pyridin-2-yl)ethyl)benzamide] was over 100 µM; that for `O=C(NCCc1cccnc1)c1cc([C@@H]2CCNC[C@H]2COc2ccc3c(c2)OCO3)ccc1F` [14ao, 5-((3S,4R)-3-((benzo[d][1,3]dioxol-5-yloxy)methyl)piperidin-4-yl)-2-fluoro-N-(2-(pyridin-3-yl)ethyl)benzamide] was over 100 µM.
Same read-out and setting: the value for `O=C(NCCc1ccncc1)c1cc([C@@H]2CCNC[C@H]2COc2ccc3c(c2)OCO3)ccc1F` [14ap, 5-((3S,4R)-3-((benzo[d][1,3]dioxol-5-yloxy)methyl)piperidin-4-yl)-2-fluoro-N-(2-(pyridin-4-yl)ethyl)benzamide] was over 100 µM; that for `O=C(NCc1ncc[nH]1)c1cc([C@@H]2CCNC[C@H]2COc2ccc3c(c2)OCO3)ccc1F` [14aq, N-((1H-imidazol-2-yl)methyl)-5-((3S,4R)-3-((benzo[d][1,3]dioxol-5-yloxy)methyl)piperidin-4-yl)-2-fluorobenzamide] was over 100 µM; that for `O=C(NCCc1c[nH]cn1)c1cc([C@@H]2CCNC[C@H]2COc2ccc3c(c2)OCO3)ccc1F` [14ar, N-(2-(1H-imidazol-4-yl)ethyl)-5-((3S,4R)-3-((benzo[d][1,3]dioxol-5-yloxy)methyl)piperidin-4-yl)-2-fluorobenzamide] was over 100 µM.
On to `O=C(NCCc1cc[nH]n1)c1cc([C@@H]2CCNC[C@H]2COc2ccc3c(c2)OCO3)ccc1F` [14at, N-(2-(1H-pyrazol-3-yl)ethyl)-5-((3S,4R)-3-((benzo[d][1,3]dioxol-5-yloxy)methyl)piperidin-4-yl)-2-fluorobenzamide], for which, in assay [1], the 50% inhibitory concentration (IC50) was over 100 µM. Besides, the “decrease in GRK2 potency relative to 14as” value at bovine GRK2 (S670A) was found to be 26 fold.
In the case of `Cc1cc(CNC(=O)c2cc([C@@H]3CCNC[C@H]3COc3ccc4c(c3)OCO4)ccc2F)n[nH]1` [14au, 5-((3S,4R)-3-((benzo[d][1,3]dioxol-5-yloxy)methyl)piperidin-4-yl)-2-fluoro-N-((5-methyl-1H-pyrazol-3-yl)methyl)benzamide], the IC50 in assay [1] was over 100 µM. For the same compound, the “selectivity for GRK2 over GRK5” value on bovine GRK5 is recorded as over 100 fold.
On to `Cn1ccc(CNC(=O)c2cc([C@@H]3CCNC[C@H]3COc3ccc4c(c3)OCO4)ccc2F)n1` [14av, 5-((3S,4R)-3-((benzo[d][1,3]dioxol-5-yloxy)methyl)piperidin-4-yl)-2-fluoro-N-((1-methyl-1H-pyrazol-3-yl)methyl)benzamide], for which the IC50 in assay [1] is over 100 µM. For the same compound, on bovine GRK2 (S670A), the “decrease in GRK2 potency relative to 14as” value is recorded as 40 fold.
In assay [1], `Cn1nccc1CNC(=O)c1cc([C@@H]2CCNC[C@H]2COc2ccc3c(c2)OCO3)ccc1F` [14aw, 5-((3S,4R)-3-((benzo[d][1,3]dioxol-5-yloxy)methyl)piperidin-4-yl)-2-fluoro-N-((1-methyl-1H-pyrazol-5-yl)methyl)benzamide] yielded an IC50 of over 100 µM. Besides, on bovine GRK2 (S670A), the “decrease in GRK2 potency relative to 14as” value is recorded as 70 fold.
In the case of `O=C(NCc1cn[nH]c1)c1cc([C@@H]2CCNC[C@H]2COc2ccc3c(c2)OCO3)ccc1F` [14ax, N-((1H-pyrazol-4-yl)methyl)-5-((3S,4R)-3-((benzo[d][1,3]dioxol-5-yloxy)methyl)piperidin-4-yl)-2-fluorobenzamide], the IC50 in assay [1] is over 100 µM. In addition, the “decrease in GRK2 potency relative to 14as” value at bovine GRK2 (S670A) is 10 fold.
In assay [1], `O=C(NCCc1cn[nH]c1)c1cc([C@@H]2CCNC[C@H]2COc2ccc3c(c2)OCO3)ccc1F` [14ay, N-(2-(1H-pyrazol-4-yl)ethyl)-5-((3S,4R)-3-((benzo[d][1,3]dioxol-5-yloxy)methyl)piperidin-4-yl)-2-fluorobenzamide hydrochloride] gave an IC50 of over 100 µM.
With `O=C(Cc1cc([C@@H]2CCNC[C@H]2COc2ccc3c(c2)OCO3)ccc1F)NCCc1ccccn1` [14bc, 2-(5-((3S,4R)-3-((benzo[d][1,3]dioxol-5-yloxy)methyl)piperidin-4-yl)-2-fluorophenyl)-N-(2-(pyridin-2-yl)ethyl)acetamide hydrochloride], the IC50 in assay [1] was over 100 µM.
With `O=C(Cc1cc([C@@H]2CCNC[C@H]2COc2ccc3c(c2)OCO3)ccc1F)NCCc1cn[nH]c1` [14bd, N-(2-(1H-pyrazol-4-yl)ethyl)-2-(5-((3S,4R)-3-((benzo[d][1,3]dioxol-5-yloxy)methyl)piperidin-4-yl)-2-fluorophenyl)acetamide], in assay [1], the IC50 is over 100 µM. Besides, the “increase in GRK2 potency relative to paroxetine” value at bovine GRK2 (S670A) came out at 2 fold.
`Fc1ccc([C@@H]2CCNC[C@H]2COc2ccc3c(c2)OCO3)cc1` [Paroxetine, paroxetine, reference compound]: the half-inhibitory concentration (IC50) in assay [1] is over 100 µM.
